Experimental data: PubChem BioAssay AID488890 (Southern Research Specialized Biocontainment Screening …, 2010)
Records with an inconclusive call do not appear. Activity calls are given as the source filed them. No rule for the calls is given here.

System: Mycobacterium tuberculosis non-replicating, growth inhibition
Test: growth inhibition of non-replicating M. tuberculosis (AID 488890)

Structure (SMILES) | IC50
CC(/C=C/c1cccc([N+](=O)[O-])c1)=N\NC(=O)c1ccncc1 | 1.2 µM
O=[N+]([O-])c1cnc(Nc2ccc(Cl)cn2)c([N+](=O)[O-])c1 | 1.89 µM
COc1cccc(-c2cc3nc4c(c(NCC(C)(C)CN(C)C)n3n2)CCCC4)c1 | 26.2 µM (inactive)
CC(C)(C)c1ccc(C(=O)N2CCCC2)s1 | 1.66 µM
CCc1ccc(OCCNc2cc(N3CCNC(C)C3)ccc2[N+](=O)[O-])cc1 (stereo not given) | 2.89 µM
O=C(C/C=N\OCc1ccc([N+](=O)[O-])cc1)Nc1ccccc1 | 4.57 µM
COC(=O)c1ccc(OCC(=O)c2cccc(OC)c2)cc1 | 11 µM (inactive)
CCOC(=O)COc1ccc(C(=O)NC2CCCCC2)cc1 | 4.04 µM
Cc1nn2c(NCCN(C)C)c3c(nc2c1-c1ccccc1)CCCC3 | 5.07 µM
CCOC(=O)C1(CCc2ccccc2)CCN(Cc2ccccn2)CC1 | 13.6 µM (inactive)
Cc1ccc(-c2nnc(SCC#CCOC(=O)c3ccco3)o2)cc1 | 0.11 µM
NC(=O)COc1ccc2cc(-c3ccc(F)cc3)c(=O)oc2c1 | 18 µM (inactive)
Nc1ccc2cc(Br)ccc2c1 | 0.44 µM
COC(=O)CCSCc1cn2cc(Cl)ccc2n1 | 32 µM (inactive)
CC1=NN(C(=O)c2ccccc2)C(O)(c2ccc(Br)cc2)C1 (stereo not given) | 0.62 µM
CCOc1ccc(NC(=O)CCC(=O)N/N=C/c2ccc([N+](=O)[O-])s2)cc1 | 8.29 µM
Cc1ccc(-c2ccc(/C=N/NC(=O)CN3CCOCC3)o2)cc1[N+](=O)[O-] | 32.2 µM (inactive)
CC(=O)OCCNc1cc(Sc2nc3ccccc3[nH]2)c2nonc2c1[N+](=O)[O-] | 2.41 µM
O=C(Nc1ccccn1)c1ccc(C(=O)c2ccccc2)cc1 | 18.4 µM (inactive)
COC(=O)c1ccc(COC(=O)CCS(=O)(=O)c2ccc(C)cc2)cc1 | 19 µM (inactive)
COc1ccc(O)c(C(=O)CC(=O)c2ccc(F)cc2)c1 | 17.2 µM (inactive)
Cc1ccc(NCCC(=O)c2cccs2)cc1 | 2.33 µM
C/C(=N\Nc1cccc2cccnc12)c1ccccn1 | 32.7 µM (inactive)

Structure (SMILES) | IC50
Cc1ccc(Sc2ccc(C=C3C(=O)N(C)C(=O)N(C)C3=O)o2)cc1 | 3.04 µM
CCOc1ccc(C(=O)N/N=C/c2cccc3cccnc23)cc1 | 4.65 µM
CCCCCOc1ccc(Br)cc1/C(C)=N/NC1=NCCN1 | 7.59 µM
Cc1ccc(NC(=O)c2ccc([N+](=O)[O-])o2)cc1S(=O)(=O)N1CCOCC1 | 13.9 µM (inactive)
CC1(C)Oc2ccc(NC(=O)C3COc4ccccc4O3)cc2O1 (stereo not given) | 12.9 µM (inactive)
O=C(Nc1ncc([N+](=O)[O-])s1)c1cccs1 | 11.2 µM (inactive)
CC(=O)Nc1ccc(NC(=O)c2cc([N+](=O)[O-])cc([N+](=O)[O-])c2)cc1 | 8.92 µM
C/C(=N\NC(=O)c1cc2ccccc2cc1O)c1ccc(C)o1 | 2.04 µM
O=C(COC(=O)c1cc(Br)ccc1Cl)NC1CCCC1 | 4.84 µM
O=C(COc1ccc(Cl)cc1)Nc1ccc(Cl)cn1 | 6.56 µM
O=C(c1ccccc1)c1nc[nH]c1C(=O)Nc1ccccc1 | 11.5 µM (inactive)
O=C(NCc1ccc(F)cc1)c1cnccn1 | 3.86 µM
Cc1cccc(OCCN2CSC(=S)N(C)C2)c1 | 16.4 µM (inactive)
CCCCN(CC)S(=O)(=O)c1ccc(C(=O)Nc2nnc(-c3cccs3)o2)cc1 | 11.3 µM (inactive)
Cc1nn(-c2ccccc2)nc1C(=O)c1c(C)[nH]n(-c2ccccc2)c1=O | 4.19 µM
COc1cc2c(cc1OC)CN(C(=O)c1ccc([N+](=O)[O-])o1)CC2 | 1.29 µM
CCOC(=O)c1cc(-c2csc(COc3ccccc3)n2)on1 | < 0.1 µM
COc1cccc(C(=O)OCn2nnc3ccccc3c2=O)c1OC | 19 µM (inactive)
FC(F)(F)c1nc(SCc2ccc(Cl)cc2Cl)n[nH]1 | 4.69 µM
C/C(=N\NC(=O)c1cccc(Cl)c1)C1C(=O)c2ccccc2C1=O | 0.38 µM
O=C(NC(=S)N1CCN(C/C=C/c2ccccc2)CC1)c1ccco1 | 36.1 µM (inactive)
CCOC(=O)COc1ccc2ccccc2c1/C=C/[N+](=O)[O-] | 2.32 µM
